Measurements from patent US4048167A, “N,N-disubstituted derivatives of 3-carboxamide or 3-thiocarboxamide-7-(3-chloro-2-propenyl)-1,3,5,7-tetraazabicyclo(3.3.1) nonane and preparation II” (The Dow Chemical Company, priority 1976, dated 1977).
Values after ≈ are worked out from the molar mass of the structure shown.

How the values were obtained:
Format in all cases: cell-based
[1] = tested on: Pseudomas Species Str. 10; experiment: agar Petri dish dilution test, Pseudomas Species Str. 10; conditions: read-out: MIC, Ps
B. subtilis = experiment: agar Petri dish dilution test, B. subtilis; conditions: Bacillus subtilis
M. phlei = experiment: agar Petri dish dilution test, M. phlei; conditions: Mycolicibacterium phlei
mentagrophytes = experiment: agar Petri dish dilution test, mentagrophytes
A. aerogenes = experiment: agar Petri dish dilution test, A. aerogenes; conditions: Klebsiella aerogenes
E. coli = experiment: agar Petri dish dilution test, E. coli; conditions: Escherichia coli
S. aureus = experiment: agar Petri dish dilution test, S. aureus; conditions: Staphylococcus aureus

SMILES	MIC [1] [µg/mL]	MIC (B. subtilis) [µg/mL]	MIC (M. phlei) [µg/mL]	MIC (mentagrophytes) [µg/mL]	MIC (A. aerogenes) [µg/mL]	MIC (E. coli) [µg/mL]	MIC (S. aureus) [µg/mL]
CN(C)C(=O)N1CN2CN(C/C=C\Cl)CN(C2)C1 [Example 1, N,N-Dimethyl-3-Carboxamide-7-cis-(3-Chloro-2-Propenyl)-1,3,5,7-Tetraazabicyclo(3.3.1)Nonane]	500 (≈ 1830 µM)	100 (≈ 365 µM)	500 (≈ 1830 µM)	100 (≈ 365 µM)	100 (≈ 365 µM)	500 (≈ 1830 µM)	500 (≈ 1830 µM)
CCN(CC)C(=O)N1CN2CN(C/C=C\Cl)CN(C2)C1 [Example 2 a.]	–	100 (≈ 331 µM)	500 (≈ 1660 µM)	100 (≈ 331 µM)	100 (≈ 331 µM)	100 (≈ 331 µM)	500 (≈ 1660 µM)
O=C(N1CN2CN(C/C=C\Cl)CN(C2)C1)N(c1ccccc1)c1ccccc1 [Example 2 b.]	500 (≈ 1260 µM)	500 (≈ 1260 µM)	500 (≈ 1260 µM)	100 (≈ 251 µM)	500 (≈ 1260 µM)	500 (≈ 1260 µM)	500 (≈ 1260 µM)
CN(C(=O)N1CN2CN(C/C=C\Cl)CN(C2)C1)c1ccccc1 [Example 2 c.]	500 (≈ 1490 µM)	500 (≈ 1490 µM)	500 (≈ 1490 µM)	100 (≈ 298 µM)	500 (≈ 1490 µM)	500 (≈ 1490 µM)	500 (≈ 1490 µM)
CN(C)C(=S)N1CN2CN(C/C=C\Cl)CN(C2)C1 [Example 2 d.]	500 (≈ 1730 µM)	100 (≈ 345 µM)	500 (≈ 1730 µM)	100 (≈ 345 µM)	500 (≈ 1730 µM)	500 (≈ 1730 µM)	500 (≈ 1730 µM)
